Experimental data: patent US8975078B2, “Method for expressing a mouse olfactory receptor Olfr15 on a cell membrane” (Panasonic Corporation, priority 2011, dated 2015)

What was measured:
[1] = test system: mouse olfactory receptor Olfr15; test: Expression rate of mouse olfactory receptor Olfr15 on the cell membrane of transfected HEK293T cells (immunofluorescence); type: cell-based
HEK293T cells = test: Cell viability rate of transfected HEK293T cells at the time of immunofluorescence; type: cell-based
Description: The liquid culture medium containing HEK293T cells was added into a Petri dish. The HEK293T cells adhered spontaneously to the inner wall of the Petri dish.
The plasmid (RTP1S), the plasmid (Rho-myc-Olfr15), and a plasmid (purchased from Evrogen, trade name: pMkate2) coding for a membrane marker were added to the Petri dish, and the HEK293T cells were transfected with these three plasmids by a lipofection method. The liquid culture medium was maintained under an air atmosphere containing 5% CO2 under a temperature of 37 degrees Celsius. In this way, as shown in the uppermost part of FIG. 4, the vessel containing the transformed HEK293 cells and the liquid culture medium was prepared.
Twenty four hours after the transfection, a liquid culture medium containing chlorpromazine was added into the vessel. […]
Subsequently, the liquid culture medium was removed. Then, the liquid culture medium not containing chlorpromazine (see FIG. 2) was added to the vessel. Thus, the liquid culture medium was exchanged.
Four hours after the exchange of the liquid culture medium, the distribution of the mouse olfactory receptor Olfr15 on the cell membrane was evaluated in accordance with the immunofluorescence technique disclosed in Non Patent Literature 2. For example, the expression rate on the cell membrane and the cell viability rate were calculated in accordance with the following formulas. (Expression rate on the cell membrane)=(fluorescence intensity on the cell membrane)/(fluorescence intensity of one entire cell) (Cell viability rate)=(the number of the living cells when the immunofluorescence technique was performed)/(the number of all the cells when the immunofluorescence technique was performed)
For example, the expression rate and the cell viability rate of not less than ten cells were calculated. Then, each of the average value of these rates was calculated. “Expression rate on the cell membrane” and “Cell viability rate” described in Table 3 are the average rates thereof.

[2] = chlorpromazine 5 μg/ml, immersion time 0.5 hour
[3] = chlorpromazine 5 μg/ml, immersion time 1 hour
[4] = chlorpromazine 5 μg/ml, immersion time 2 hour
[5] = chlorpromazine 5 μg/ml, immersion time 4 hour
[6] = chlorpromazine 5 μg/ml, immersion time 9 hour
[7] = chlorpromazine 5 μg/ml, immersion time 20 hour
[8] = chlorpromazine 10 μg/ml, immersion time 0.5 hour
[9] = chlorpromazine 10 μg/ml, immersion time 1 hour
[10] = chlorpromazine 10 μg/ml, immersion time 2 hour
[11] = chlorpromazine 10 μg/ml, immersion time 4 hour
[12] = chlorpromazine 10 μg/ml, immersion time 9 hour
[13] = chlorpromazine 10 μg/ml, immersion time 20 hour
[14] = chlorpromazine 25 μg/ml, immersion time 0.5 hour
[15] = chlorpromazine 25 μg/ml, immersion time 1 hour
[16] = chlorpromazine 25 μg/ml, immersion time 2 hour

**Q.** What does the source list for `CN(C)CCCN1c2ccccc2Sc2ccc(Cl)cc21` [chlorpromazine]?
**A.** Expression rate on the cell membrane (%) ([1]; Comparative Example 2: as Example 1 (chlorpromazine 25 μg/ml, 20 hour) but plasmid (RTP1S) not used): 9.7%; Expression rate on the cell membrane (%) [1, 2]: 11.8%; Expression rate on the cell membrane (%) [1, 3]: 8.1%; Expression rate on the cell membrane (%) [1, 4]: 12.3%; Expression rate on the cell membrane (%) [1, 5]: 8.5%; Expression rate on the cell membrane (%) [1, 6]: 11.5%; Expression rate on the cell membrane (%) [1, 7]: 14.1%; Expression rate on the cell membrane (%) [1, 8]: 9.6%; Expression rate on the cell membrane (%) [1, 9]: 9.9%; Expression rate on the cell membrane (%) [1, 10]: 19.7%; Expression rate on the cell membrane (%) [1, 11]: 16.7%; Expression rate on the cell membrane (%) [1, 12]: 17.4%; Expression rate on the cell membrane (%) [1, 13]: 19.2%; Expression rate on the cell membrane (%) [1, 14]: 15.1%; Expression rate on the cell membrane (%) [1, 15]: 29.5%; Expression rate on the cell membrane (%) [1, 16]: 24.0%; Expression rate on the cell membrane (%) ([1]; chlorpromazine 25 μg/ml, immersion time 20 hour, HEK293T with RTP1S and Rho-myc-Olfr15 plasmids, 4 h after medium exchange): 28.4%; expression rate of the olfactory receptor Olfr15 on the cell membrane (change when added) ([1]; statement on Table 3, versus medium without chlorpromazine): increases; Cell viability rate (%) (HEK293T cells; [2]): 81%; Cell viability rate (%) (HEK293T cells; [3]): 88%; Cell viability rate (%) (HEK293T cells; [4]): 89%; Cell viability rate (%) (HEK293T cells; [5]): 82%; Cell viability rate (%) (HEK293T cells; [6]): 79%; Cell viability rate (%) (HEK293T cells; [7]): 68%; Cell viability rate (%) (HEK293T cells; [8]): 89%; Cell viability rate (%) (HEK293T cells; [9]): 82%; Cell viability rate (%) (HEK293T cells; [10]): 84%; Cell viability rate (%) (HEK293T cells; [11]): 81%; Cell viability rate (%) (HEK293T cells; [12]): 41%; Cell viability rate (%) (HEK293T cells; [13]): 50%; Cell viability rate (%) (HEK293T cells; [14]): 89%; Cell viability rate (%) (HEK293T cells; [15]): 55%; Cell viability rate (%) (HEK293T cells; [16]): 41%; Cell viability rate (%) (HEK293T cells; chlorpromazine 25 μg/ml, immersion time 20 hour): 11%

**Q.** For `OC[C@H]1O[C@@](CO)(O[C@H]2O[C@H](CO)[C@@H](O)[C@H](O)[C@H]2O)[C@@H](O)[C@@H]1O` [sucrose], which “Expression rate on the cell membrane (%)” value ([1]; Comparative Example 4: sucrose 250 mM instead of chlorpromazine, otherwise as Example 1) is on record?
**A.** 12.5%
